Assay results published in patent US9067941B2, “Fused heterocyclic azaindane carboxamide CGRP receptor antagonists” (Merck Sharp & Dohme Corp., priority 2010, dated 2015).

Target: T1, recombinant human CL receptor/RAMP1 (Homo sapiens, UniProt O60894+Q16602)
T1 construct: expressed in transfected cells; membranes
Assay: Recombinant receptor binding assay (125I-hCGRP displacement, membranes of HEK 293 cells)
Settings: 10 pM 125I-hCGRP, 3 h at room temperature
Protocol: RECOMBINANT RECEPTOR: Human CL receptor (Genbank accession number L76380) was subcloned into the expression vector pIREShyg2 (BD Biosciences Clontech) as a 5′NheI and 3′ PmeI fragment. Human RAMP1 (Genbank accession number A3001014) was subcloned into the expression vector pIRESpuro2 (BD Biosciences Clontech) as a 5′NheI and 3′NotI fragment. HEK 293 cells (human embryonic kidney cells; ATCC #CRL-1573) were cultured in DMEM with 4.5 g/L glucose, 1 mM sodium pyruvate and 2 mM glutamine supplemented with 10% fetal bovine serum (FBS), 100 units/mL penicillin and 100 μg/mL streptomycin, and maintained at 37° C. and 95% humidity. Cells were subcultured by treatment with 0.25% trypsin with 0.1% EDTA in HBSS. Stable cell line generation was accomplished by co-transfecting 10 μg of DNA with 30 μg Lipofectamine 2000 (Invitrogen) in 75 cm^2 flasks. CL receptor and RAMP1 expression constructs were co-transfected in equal amounts. Twenty-four hours after transfection the cells were diluted and selective medium (growth medium+300 μg/mL hygromycin and 1 μg/mL puromycin) was added the following day. A clonal cell line was generated by single cell deposition utilizing a FACS Vantage SE (Becton Dickinson). Growth medium was adjusted to 150 μg/mL hygromycin and 0.5 μg/mL puromycin for cell propagation.
RECOMBINANT RECEPTOR BINDING ASSAY: Cells expressing recombinant human CL receptor/RAMP1 were washed with PBS and harvested in harvest buffer containing 50 mM HEPES, 1 mM EDTA and Complete™ protease inhibitors (Roche). The cell suspension was disrupted with a laboratory homogenizer and centrifuged at 48,000 g to isolate membranes. The pellets were resuspended in harvest buffer plus 250 mM sucrose and stored at −70° C. For binding assays, 20 μg of membranes were incubated in 1 mL binding buffer (10 mM HEPES, pH 7.4, 5 mM MgCl2, and 0.2% BSA) for 3 h at room temperature containing 10 pM ^125I-hCGRP (GE Healthcare) and antagonist. The assay was terminated by filtration through 96-well GFB glass fiber filter plates (PerkinElmer) that had been blocked with 0.05% polyethyleneimine. The filters were washed 3 times with ice-cold assay buffer (10 mM HEPES, pH 7.4, and 5 mM MgCl2). Scintillation fluid was added and the plates were counted on a Topcount (Packard). Non-specific binding was determined and the data analysis was carried out with the apparent dissociation constant (Ki) determined by using a non-linear least squares fitting the bound CPM data to the equation below:
[formula] Where Y is observed CPM bound, Ymax is total bound counts, Ymin is non specific bound counts, (Ymax−Ymin) is specific bound counts, % Imax is the maximum percent inhibition, % I min is the minimum percent inhibition, radiolabel is the probe, and the Kd is the apparent dissociation constant for the radioligand for the receptor as determined by hot saturation experiments.

T1 sequence (Q16602 23-461): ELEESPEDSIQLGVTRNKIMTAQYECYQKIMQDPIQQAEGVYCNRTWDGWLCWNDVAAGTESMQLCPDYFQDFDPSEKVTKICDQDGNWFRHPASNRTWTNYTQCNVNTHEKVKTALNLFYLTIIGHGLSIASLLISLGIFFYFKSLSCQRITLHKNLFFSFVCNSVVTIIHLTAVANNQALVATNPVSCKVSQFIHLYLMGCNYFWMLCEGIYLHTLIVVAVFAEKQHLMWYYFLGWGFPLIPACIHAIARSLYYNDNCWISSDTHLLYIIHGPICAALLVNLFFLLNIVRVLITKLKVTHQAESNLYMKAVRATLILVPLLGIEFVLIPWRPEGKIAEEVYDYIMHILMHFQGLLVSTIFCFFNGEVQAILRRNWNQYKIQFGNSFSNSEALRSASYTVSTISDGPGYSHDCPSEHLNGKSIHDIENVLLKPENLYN
T1 sequence (O60894 27-148): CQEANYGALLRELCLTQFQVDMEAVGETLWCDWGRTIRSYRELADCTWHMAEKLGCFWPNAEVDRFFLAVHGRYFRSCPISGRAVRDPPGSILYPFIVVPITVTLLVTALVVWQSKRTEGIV

Compound	Ki [nM]
C[C@@H]1[C@H](c2ccccc2)C[C@H](NC(=O)c2cnc3c(c2)C[C@@]2(C3)C(=O)Nc3ncncc32)c2ncc(C(C)(C)O)n21 [Example 2.1, (6S)—N-[(5R,6S,8S)-3-(2-Hydroxypropan-2-yl)-5-methyl-6-phenyl-5,6,7,8-tetrahydroimidazo[1,2-a]pyridin-8-yl]-6′-oxo-5,6′,7,7′-tetrahydrospiro[cyclopenta[b]pyridine-6,5′-pyrrolo[2,3-d]pyrimidine]-3-carboxamide]	0.56
O=C(N[C@H]1C[C@@H](c2cccc(F)c2F)Cn2c(CC(F)(F)F)nnc21)c1cnc2c(c1)C[C@@]1(C2)C(=O)Nc2ncccc21 [Example 1.24, (6S)—N-[(6S,8S)-6-(2,3-Difluorophenyl)-3-(2,2,2-trifluoroethyl)-5,6,7,8-tetrahydro[1,2,4]triazolo[4,3-a]pyridin-8-yl]-2′-oxo-1′,2′,5,7-tetrahydrospiro[cyclopenta[b]pyridine-6,3′-pyrrolo[2,3-b]pyridine]-3-carboxamide]	0.19
C[C@@H]1[C@H](c2ccccc2)C[C@H](NC(=O)c2cnc3c(c2)C[C@@]2(C3)C(=O)Nc3ncccc32)c2nnc(C3(C(F)(F)F)CC3)n21 [Example 1.27, (6S)—N-{(5R,6S,8S)-5-Methyl-6-phenyl-3-[1-(trifluoromethyl)cyclopropyl]-5,6,7,8-tetrahydro[1,2,4]triazolo[4,3-a]pyridin-8-yl}-2′-oxo-1′,2′,5,7-tetrahydrospiro[cyclopenta[b]pyridine-6,3′-pyrrolo[2,3-b]pyridine]-3-carboxamide]	0.36

These reach a lower Ki. Values come first.

Ki [nM]	Compound
0.02	COC(C)(C)c1cnc2n1C[C@H](c1cccc(F)c1F)C[C@@H]2NC(=O)c1cnc2c(c1)C[C@@]1(C2)C(=O)Nc2ncccc21 [Example 1.11, (6S)—N-[(6S,8S)-6-(2,3-Difluorophenyl)-3-(2-methoxypropan-2-yl)-5,6,7,8-tetrahydroimidazo[1,2-a]pyridin-8-yl]-2′-oxo-1′,2′,5,7-tetrahydrospiro[cyclopenta[b]pyridine-6,3′-pyrrolo[2,3-b]pyridine]-3-carboxamide]
0.14	C[C@@H]1[C@H](c2ccccc2)C[C@H](NC(=O)c2cnc3c(c2)C[C@@]2(C3)C(=O)Nc3ncccc32)c2ncc(C(C)(C)O)n21 [Example 1.26, (6S)—N-[(5R,6S,8S)-3-(2-Hydroxypropan-2-yl)-5-methyl-6-phenyl-5,6,7,8-tetrahydroimidazo[1,2-a]pyridin-8-yl]-2′-oxo-1′,2′,5,7-tetrahydrospiro[cyclopenta[b]pyridine-6,3′-pyrrolo[2,3-b]pyridine]-3-carboxamide]
0.06	C[C@@H]1[C@H](c2ccccc2)C[C@H](NC(=O)c2cnc3c(c2)C[C@@]2(C3)C(=O)Nc3ncccc32)c2ncc(CC(F)(F)F)n21 [Example 1.25]
0.05	O=C(N[C@H]1C[C@@H](c2cccc(F)c2F)Cn2c(CC(F)(F)F)cnc21)c1cnc2c(c1)C[C@@]1(C2)C(=O)Nc2ncccc21 [Example 1.2, (6S)—N-[(6S,8S)-6-(2,3-Difluorophenyl)-3-(2,2,2-trifluoroethyl)-5,6,7,8-tetrahydroimidazo[1,2-a]pyridin-8-yl]-2′-oxo-1′,2′,5,7-tetrahydrospiro[cyclopenta[b]pyridine-6,3′-pyrrolo[2,3-b]pyridine]-3-carboxamide]
